The supplement of paper PMC4932681

Key:
Test in all cases: viability inhibition at highest dose (% inhibition); higher = more growth inhibition
MCF-7 Tam1 = details: 4-OH-tamoxifen in medium 1 µM; 72 h
Method in brief: (§1)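 CellTiter-Glo viability was the readout, taken on a PHERAstar and normalised to vehicle-only and positive controls. It was measured after breast cancer cell lines and their resistant derivatives spent 72 h at 37 °C in 384-well plates containing library drugs at five concentrations spanning a 10 000-fold range, with 1 μM of the selecting drug in the medium of resistant lines. From logistic dose–response fits in the Breeze pipeline came drug sensitivity score, relative IC50 (curve midpoint) and top-dose inhibition.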

BT-474 Tam2 = details: 4-OH-tamoxifen in medium 1 µM; 72 h
Method in brief: as §1

T-47D Tam1 = details: 4-OH-tamoxifen in medium 1 µM; 72 h
Method in brief: as §1

ZR-75-1 Tam1 = details: 4-OH-tamoxifen in medium 1 µM; 72 h
Method in brief: as §1

BT-474 Tam1 = details: 4-OH-tamoxifen in medium 1 µM; 72 h
Method in brief: as §1

T-47D = details: 72 h
Method in brief: as §1

ZR-75-1 = details: 72 h
Method in brief: as §1

T-47D Tam2 = details: 4-OH-tamoxifen in medium 1 µM; 72 h
Method in brief: as §1

BT-474 = details: 72 h
Method in brief: as §1

ZR-75-1 Tam2 = details: 4-OH-tamoxifen in medium 1 µM; 72 h
Method in brief: as §1

MCF-7 = details: 72 h
Method in brief: as §1

Row | Compound | viability inhibition at highest dose (MCF-7 Tam1) | viability inhibition at highest dose (BT-474 Tam2) | viability inhibition at highest dose (T-47D Tam1) | viability inhibition at highest dose (ZR-75-1 Tam1) | viability inhibition at highest dose (BT-474 Tam1) | viability inhibition at highest dose (T-47D; 4-OH-tamoxifen in medium 0 µM) | viability inhibition at highest dose (T-47D; 4-OH-tamoxifen in medium 1 µM) | viability inhibition at highest dose (ZR-75-1; 4-OH-tamoxifen in medium 0 µM) | viability inhibition at highest dose (ZR-75-1; 4-OH-tamoxifen in medium 1 µM) | viability inhibition at highest dose (T-47D Tam2) | viability inhibition at highest dose (BT-474; 4-OH-tamoxifen in medium 0 µM) | viability inhibition at highest dose (BT-474; 4-OH-tamoxifen in medium 1 µM) | viability inhibition at highest dose (ZR-75-1 Tam2) | viability inhibition at highest dose (MCF-7; 4-OH-tamoxifen in medium 0 µM) | viability inhibition at highest dose (MCF-7; 4-OH-tamoxifen in medium 1 µM)
1 | C[C@]12CC[C@@H]3c4ccc(O)cc4C[C@@H](CCCCCCCCC[S+]([O-])CCCC(F)(F)C(F)(F)F)[C@H]3[C@@H]1CC[C@@H]2O (stereo not given in full) [Fulvestrant] (drug 1000 nM) | -0.218 | 4.97 | 12.9 | -1.86 | -6.25 | 1.98 | -1.62 | -18.5 | -4.88 | 8.69 | -5.27 | -0.276 | -6.33 | 31.4 | 17.5
2 | CO[C@H]1C[C@@H]2CC[C@@H](C)[C@@](O)(O2)C(=O)C(=O)N2CCCC[C@H]2C(=O)O[C@H]([C@H](C)C[C@@H]2CC[C@@H](OCCO)[C@H](OC)C2)CC(=O)[C@H](C)/C=C(\C)[C@@H](O)[C@@H](OC)C(=O)[C@H](C)C[C@H](C)/C=C/C=C/C=C/1C [Everolimus] (drug 100 nM) | 15.6 | 15.8 | 28.2 | 34.2 | 22.1 | 29.1 | 24 | 35.9 | 32.7 | 25.9 | 15.8 | 11.4 | 38.4 | 47.5 | 34.3
3 | O=C(O)CC[C@H]1CC[C@@](c2cc(F)ccc2F)(S(=O)(=O)c2ccc(Cl)cc2)CC1 [MK-0752] (drug 1000 nM) | -0.531 | 2.64 | 2.67 | -3.02 | -7.32 | -16.2 | -1.71 | -11.9 | -13.3 | 4.08 | -9.96 | -12.2 | -2.73 | -24.6 | 1.59
4 | COCC[n+]1c2c(n(Cc3cnccn3)c1C)C(=O)c1ccccc1C2=O [YM155] (drug 10000 nM) | 98.9 | 98.6 | 96.1 | 99.6 | 99.4 | 98.1 | 98.6 | 96 | 98 | 94.1 | 99 | 100 | 95.8 | 99.8 | 99.1
5 | Cc1c(N)nc([C@H](CC(N)=O)NC[C@H](N)C(N)=O)nc1C(=O)N[C@H](C(=O)N[C@H](C)[C@@H](O)[C@H](C)C(=O)N[C@H](C(=O)NCCc1nc(-c2nc(C(=O)NCCC[S+](C)C)cs2)cs1)[C@@H](C)O)[C@@H](OC1OC(CO)C(O)C(O)C1OC1OC(CO)C(O)C(OC(N)=O)C1O)c1cnc[nH]1 (stereo not given in full) [Bleomycin] (drug 10000 nM) | -1.39 | -5.24 | 23.9 | 12.1 | -4.38 | 19.4 | -2.9 | 22.4 | 9.45 | -17.7 | -15.7 | -12 | -0.492 | 12.6 | 11.9
6 | CN1CCN(c2ccc3nc(-c4c(N)c5c(F)cccc5[nH]c4=O)[nH]c3c2)CC1 [Dovitinib (CHIR-258)] (drug 10000 nM) | -5.66 | -10.4 | -4.27 | 0.00734 | -12.6 | -16.4 | -8.28 | -10.6 | -9.07 | 4.9 | -10.4 | -18.2 | -6.37 | -32.5 | -8.7
